Assay results taken from paper PMC11505200, “Exploring the 3,5-Dibromo-4,6-dimethoxychalcones and Their Flavone Derivatives as Dual α-Glucosidase and α-Amylase Inhibitors with Antioxidant and Anticancer Potential” (Antioxidants, 2024).
Where two headings read alike, the source gives them in different places.

How the values were obtained:
[1] = molecular target: T1, α-glucosidase type 1 from Saccharomyces cerevisiae (Saccharomyces cerevisiae, UniProt P53341); test: biochemical; assay type: biochemical; settings: for selectivity index (SI = IC50(α-glucosidase)/IC50(α-amylase)): ratio of α-glucosidase to α-amylase IC50
T1 construct: purchased Merck Life Science (Pty) Ltd. (Sigma-Aldrich) G5003
T1 sequence (P53341 whole entry): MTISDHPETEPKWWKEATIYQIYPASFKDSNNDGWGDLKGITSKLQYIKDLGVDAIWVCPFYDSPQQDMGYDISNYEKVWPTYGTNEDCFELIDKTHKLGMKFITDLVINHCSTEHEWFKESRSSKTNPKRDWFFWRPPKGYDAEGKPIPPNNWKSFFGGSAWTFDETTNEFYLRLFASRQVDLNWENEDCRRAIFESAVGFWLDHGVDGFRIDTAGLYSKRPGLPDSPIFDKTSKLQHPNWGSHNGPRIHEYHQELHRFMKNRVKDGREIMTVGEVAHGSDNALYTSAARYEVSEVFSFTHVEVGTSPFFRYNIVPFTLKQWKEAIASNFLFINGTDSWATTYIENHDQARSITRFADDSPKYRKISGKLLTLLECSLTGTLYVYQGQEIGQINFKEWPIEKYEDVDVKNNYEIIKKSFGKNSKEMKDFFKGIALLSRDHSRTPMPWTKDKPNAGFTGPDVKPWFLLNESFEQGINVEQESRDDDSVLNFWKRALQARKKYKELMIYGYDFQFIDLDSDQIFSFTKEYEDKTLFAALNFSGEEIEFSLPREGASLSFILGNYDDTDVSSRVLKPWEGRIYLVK
Protocol: The assays and analyses were performed in triplicates following a method described in a previous study. […] A solution of α-glucosidase type 1 from Saccharomyces cerevisiae (0.48 u/mL, 17 μL), 100 mM phosphate buffer (pH 6.8; 50 μL) and the test sample in DMSO (17 μL) were incubated at 37 °C for 10 min. This pre-incubation was followed by addition of 2 mM p-nitrophenyl-α-D-glucopyranoside (PNP-G, 17 μL) to each of the wells containing reaction mixtures to initiate the reaction. The plate was then incubated for 30 min. at 37 °C. The five absorbance readings were recorded at a wavelength of 405 nm for each triplicate run using a Varioskan flash microplate spectrophotometer (Thermo Scientific, Waltham, MA, USA). The average values obtained from the readings were used to determine the IC50 and standard deviation values. The values were calculated by the nonlinear regression analysis using the Graph Pad Prism version 8.0.1 software (San Diego, CA, USA) and expressed as the mean SD of three distinct experiments.

[2] = Nitric oxide (NO) free radical scavenging assay (Griess reagent); settings: mean ± SD; 1-50 μM
Protocol: Different concentrations (1, 5, 10, 25 and 50 μM) of the test compounds and quercetin (reference standard) were prepared in DMSO. A mixture of the compound (5 μL), 10 mM sodium nitroprusside (20 μL) and the phosphate buffer (5 μL) were incubated at 25 °C in a 96-well plate. The plate was incubated for 2.5 h at 25 °C followed by the addition of the Griess reagent (1.00 g of sulphanilic acid + 0.10 g naphthylethylene diamine dihydrochloride, 20 μL). The mixtures were allowed to stand for 30 min. […] The IC50 and SD values were calculated using the Graph Pad Prism software.

Vero cells = test: Cytotoxicity, CellTiter-Blue cell viability assay; assay type: cell-based, African green monkey (Cercopithecus aethiops); settings: 24 h treatment, 1-100 μM
Protocol: (§1) The cells were maintained in Dulbecco’s Modified Eagle’s Medium (DMEM, Gibco, Carlsbad, CA, USA) supplemented with 10% fetal bovine serum (FBS) and 1% penicillin/streptomycin in culture flasks and incubated at 37 °C in 5% CO2. When the cells reached 85% confluency, they were detached using 2% trypsin. The cell count was performed using a hand-held automated cell counter (Scapter 3.0™, Merck, Burlington, MA, USA) and then seeded at 1 × 10^5 cells/well. The well-plates were incubated overnight to allow cell attachment. After 24 h, treatments were administered with different concentrations (1, 5, 10, 25, 50 and 100 μM) of the test compounds and the positive controls (quercetin and nintedanib). The mixtures were incubated for another 24 h and then 20 μL of the CellTiter-Blue (Cytek Biosciences, San Diago, CA, USA) solution (5 mg/mL) was added to all the wells. Fluorescence was measured at 560 nm excitation/590 nm emission using an Elisa microplate reader (ThermoFisher Scientific, Vario SkanFlash, Vantaa, Finland). The cell viability of the triplicate results was calculated using the GraphPad Prism software (Version 8, GraphPad Software Inc., San Diego, CA, USA) to fit the nonlinear regression dose–response curves to obtain the IC50 and standard deviation values.

α-amylase = molecular target: T2, α-amylase (Homo sapiens, UniProt P04746); test: In vitro α-amylase inhibitory assay (α-Amylase Inhibitor Screening Kit); assay type: biochemical; settings: mean ± SD, triplicate; 1-50 μM
T2 construct: purchased Abcam ab283391
T2 sequence (P04746 16-511): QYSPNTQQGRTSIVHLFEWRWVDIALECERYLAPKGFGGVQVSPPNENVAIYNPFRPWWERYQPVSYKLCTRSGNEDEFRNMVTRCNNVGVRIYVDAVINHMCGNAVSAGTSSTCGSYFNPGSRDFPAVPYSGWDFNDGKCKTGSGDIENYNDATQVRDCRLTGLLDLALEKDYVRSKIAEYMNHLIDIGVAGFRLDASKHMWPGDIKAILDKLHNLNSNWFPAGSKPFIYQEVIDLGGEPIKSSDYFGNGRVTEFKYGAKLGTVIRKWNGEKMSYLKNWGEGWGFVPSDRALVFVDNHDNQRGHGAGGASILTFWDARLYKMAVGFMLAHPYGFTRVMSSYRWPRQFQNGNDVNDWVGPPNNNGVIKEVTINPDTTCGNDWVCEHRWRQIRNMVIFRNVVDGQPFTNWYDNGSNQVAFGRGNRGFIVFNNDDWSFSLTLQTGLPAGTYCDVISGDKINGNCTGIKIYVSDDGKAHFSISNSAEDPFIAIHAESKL
Protocol: The mixtures were incubated at 37 °C for 10 min. and the substrate prepared in the same fashion as the enzyme was added to the mixtures to initiate the reaction. The plate was then incubated at RT for 25 min. in the dark. Five different absorbance readings were recorded for each triplicate run at a wavelength of 405 nm using a Varioskan flash microplate spectrophotometer (Thermo Scientific, Waltham, MA, USA). The IC50 and SD values were calculated using the Graph Pad Prism software.

A549 cells = test: Cytotoxicity, CellTiter-Blue cell viability assay; assay type: cell-based, human; settings: 24 h treatment, 1-100 μM
Protocol: as §1

MCF-7 cells = test: Cytotoxicity, CellTiter-Blue cell viability assay; assay type: cell-based, human; settings: 24 h treatment, 1-100 μM
Protocol: as §1

[3] = Metal ion chelation assay (UV-Vis spectrophotometry); assay type: physicochemical; settings: 60 μM in methanol with CuCl2, RT
Protocol: A solution of the test compound in methanol alone (60 μM, final concentration) or in the presence of CuCl2 or ZnCl2 was stirred at RT for 30 min. The absorption spectra were recorded at RT at wavelengths ranging from 200 to 600 nm using a Shimadzu UV/Vis spectrometer, model: UV-1800 240V (Shimadzu Europa GmbH, Albert-Han Strasse 6-10, 47269 Duisburg, Germany).

[4] = mean ± SD, triplicate, 1-50 μM, read-out: IC50 α-Glucosidase
[5] = Chlorocebus sabaeus, Vero, 24 h

Structure (SMILES) | IC50 [1, 4] [µM] | melting point [°C] | IC50 [2] [µM] | IC50 [1] [µM] | IC50 (Vero cells; [5]) [µM] | IC50 (α-amylase) [µM] | IC50 (A549 cells; Homo sapiens, A549, 24 h) [µM] | IC50 (MCF-7 cells; Homo sapiens, MCF7, 24 h) [µM] | further results
COc1ccc(-c2cc(=O)c3c(OC)c(Br)c(OC)c(Br)c3o2)cc1 [3d, 6,8-Dibromo-5,7-dimethoxy-2-(4-methoxyphenyl)-4H-chromen-4-one] | 15.2 ± 0.002 | 233 to 236 | 5.3 ± 0.005 | – | – | – | – | – | –
COc1c(Br)c(O)c(C(=O)/C=C/c2ccc(C(C)C)cc2)c(OC)c1Br [2f, (E)-1-(3,5-Dibromo-2-hydroxy-4,6-dimethoxyphenyl)-3-(4-isopropylphenyl)prop-2-en-1-one] | – | 128 to 130 | 17.4 ± 0.015 | 23.6 ± 0.1 | – | – | – | – | –
COc1ccc(/C=C/C(=O)c2c(O)c(Br)c(OC)c(Br)c2OC)cc1 [2d, (E)-1-(3,5-Dibromo-2-hydroxy-4,6-dimethoxyphenyl)-3-(4-methoxyphenyl)prop-2-en-1-one] | – | 155 to 158 | 9.5 ± 0.004 | 16.3 ± 0.02 | – | – | – | – | –
COc1c(Br)c(OC)c2c(=O)cc(-c3ccc(C(C)C)cc3)oc2c1Br [3f, 6,8-Dibromo-5,7-dimethoxy-2-(4-isopropylphenyl)-4H-chromen-4-one] | 5.6 ± 0.006 | 165 to 167 | 12.1 ± 0.07 | – | 11.7 ± 1.02 | 28 ± 0.06 | 16.1 ± 1.15 | 10.7 ± 1.02 | selectivity index (SI = IC50(α-glucosidase)/IC50(α-amylase)) [1]: 0.2
O=c1c(O)c(-c2ccc(O)c(O)c2)oc2cc(O)cc(O)c12 [Quercetin, reference compound] | – | – | 4.8 ± 0.01 | – | – | – | – | – | IC50 (Vero cells; Chlorocebus sabaeus, Vero): 45.6 ± 1.8 µM; IC50 (A549 cells; Homo sapiens, A549): 35.4 ± 1.78 µM; IC50 (MCF-7 cells; Homo sapiens, MCF7): 35.4 ± 1.78 µM
COc1c(Br)c(OC)c2c(=O)cc(-c3ccccc3)oc2c1Br [3a, 6,8-Dibromo-5,7-dimethoxy-2-phenyl-4H-chromen-4-one] | – | 216 to 218 | – | 14.2 ± 0.005 | 12.4 ± 0.97 | – | 16.2 ± 0.91 | 8.5 ± 0.82 | IC50 (Vero cells): 16.2 ± 0.91 µM; IC50 (A549 cells): 12.4 ± 0.97 µM
COC(=O)c1ccc2c(c1)NC(=O)/C2=C(\Nc1ccc(N(C)C(=O)CN2CCN(C)CC2)cc1)c1ccccc1 [Nintedanib, reference compound] | – | – | – | – | 0.89 ± 0.18 | – | 0.74 ± 0.15 | 0.53 ± 0.11 | –
COc1c(Br)c(O)c(C(=O)/C=C/c2ccc(F)cc2)c(OC)c1Br [2b, (E)-1-(3,5-Dibromo-2-hydroxy-4,6-dimethoxyphenyl)-3-(4-fluorophenyl)prop-2-en-1-one] | 7.3 ± 0.004 | 132 to 134 | 6.5 ± 0.005 | – | 25 ± 1.09 | 6.5 ± 0.07 | 18.7 ± 0.89 | 12.1 ± 0.72 | selectivity index (SI = IC50(α-glucosidase)/IC50(α-amylase)) [1]: 1.12
COc1c(Br)c(OC)c2c(=O)cc(-c3ccc(F)cc3)oc2c1Br [3b, 6,8-Dibromo-2-(4-fluorophenyl)-5,7-dimethoxy-4H-chromen-4-one] | 19.5 ± 0.005 | 288 to 289 | 5.4 ± 0.002 | – | – | – | – | – | –
COc1c(Br)c(OC)c2c(=O)cc(-c3ccc(C)cc3)oc2c1Br [3e, 6,8-Dibromo-5,7-dimethoxy-2-(p-tolyl)-4H-chromen-4-one] | 10.9 ± 0.007 | 205 to 206 | 13.3 ± 0.08 | – | 9.45 ± 0.79 | 25.4 ± 0.04 | 6.42 ± 0.79 | 6.96 ± 0.66 | –
COc1c(Br)c(O)c(C(=O)/C=C/c2ccc(C)cc2)c(OC)c1Br [2e, (E)-1-(3,5-Dibromo-2-hydroxy-4,6-dimethoxyphenyl)-3-(p-tolyl)prop-2-en-1-one] | – | 151 to 152 | – | 27.4 ± 0.02 | – | – | – | – | –
COc1c(Br)c(O)c(C(=O)/C=C/c2ccccc2)c(OC)c1Br [2a, (E)-1-(3,5-Dibromo-2-hydroxy-4,6-dimethoxyphenyl)-3-phenylprop-2-en-1-one] | – | 106 to 108 | 11 ± 0.01 | 14.5 ± 0.01 | 6.04 ± 0.54 | 7.3 ± 0.11 | 7.4 ± 0.67 | 4.12 ± 0.55 | selectivity index (SI = IC50(α-glucosidase)/IC50(α-amylase)) [1]: 1.99
COc1c(Br)c(O)c(C(=O)/C=C/c2ccc(Cl)cc2)c(OC)c1Br [2c, (E)-1-(3,5-Dibromo-2-hydroxy-4,6-dimethoxyphenyl)-3-(4-chlorophenyl)prop-2-en-1-one] | – | 150 to 152 | 28 ± 0.003 | 12.3 ± 0.003 | 20.3 ± 1.01 | 18 ± 0.06 | 9.68 ± 0.8 | 15.1 ± 0.91 | selectivity index (SI = IC50(α-glucosidase)/IC50(α-amylase)) [1]: 0.68
COc1c(Br)c(OC)c2c(=O)cc(-c3ccc(Cl)cc3)oc2c1Br [3c, 6,8-Dibromo-2-(4-chlorophenyl)-5,7-dimethoxy-4H-chromen-4-ONE] | 0.8 ± 0.002 | 280 to 283 | 4.7 ± 0.02 | – | – | – | – | 6.96 ± 0.66 | coordination of Cu^2+ (change of UV-Vis maxima) [3]: some coordination of 3c to the copper ion; IC50 (MCF-7 cells): 5.1 ± 0.61 µM
